ChEMBL document CHEMBL3390848, “Affinity selection and sequence-activity relationships of HIV-1 membrane fusion inhibitors directed at the drug-resistant variants” (Medchemcomm, 2010)
Residues, ends and D or L forms follow the SMILES beside them.

Experiments:
[1] = tested on: Human immunodeficiency virus 1; experiment: Antiviral activity against HIV1 NL4-3 harboring gp41 D36G mutant infected in human HeLa cells expressing CD4-LTR-beta-gal assessed as inhibition of viral replication after 48 hrs by MAGI assay; type: functional, organism-based
[2] = tested on: Human immunodeficiency virus 1; experiment: Binding affinity to HIV1 His-tagged N-terminal heptad repeat of envelope glycoprotein gp41 assessed as recovery of N54-drug complex after 2 hrs by LC-MS analysis; set-up: concentration or dose not given beside the values
[3] = tested on: Human immunodeficiency virus 1; experiment: Thermal stability of HIV1 envelope glycoprotein gp41 His-tagged N-terminal heptad repeat N54-drug complex assessed as thermal unfolding transition state by measuring molar ellipticity at 4 to 90 degC by circular dichroic spectra analysis

CC[C@H](C)[C@H](NC(=O)[C@H](CC(C)C)NC(=O)[C@H](CCC(=O)O)NC(=O)[C@H](CCC(=O)O)NC(=O)[C@@H](NC(=O)[C@H](CC(C)C)NC(=O)[C@H](CO)NC(=O)[C@@H](NC(=O)[C@H](Cc1ccc(O)cc1)NC(C)=O)[C@@H](C)O)[C@@H](C)CC)C(=O)N[C@@H](CCCCN)C(=O)N[C@@H](CCCCN)C(=O)N[C@@H](CCSC)C(=O)N[C@@H](CCC(=O)O)C(=O)N[C@@H](CCC(=O)O)C(=O)N[C@@H](CCC(N)=O)C(=O)N[C@@H](CCC(N)=O)C(=O)N[C@@H](CCCCN)C(=O)N[C@@H](CCCCN)C(=O)N[C@@H](CC(N)=O)C(=O)N[C@@H](CCC(=O)O)C(=O)N[C@@H](CCC(=O)O)C(=O)N[C@@H](CCC(=O)O)C(=O)N[C@@H](CC(C)C)C(=O)N[C@@H](CCCCN)C(=O)N[C@@H](CCCCN)C(=O)N[C@@H](CC(C)C)C(=O)N[C@@H](CCC(=O)O)C(=O)N[C@@H](CCC(=O)O)C(=O)N[C@@H](Cc1c[nH]c2ccccc12)C(=O)N[C@@H](C)C(=O)N[C@@H](CCCCN)C(=O)N[C@@H](CCCCN)C(=O)N[C@@H](Cc1c[nH]c2ccccc12)C(=O)N[C@@H](CC(N)=O)C(=O)N[C@@H](Cc1c[nH]c2ccccc12)C(=O)N[C@@H](Cc1ccccc1)C(N)=O (Ac-YTSLIEELIKKMEEQQKKNEEELKKLEEWAKKWNWF-NH2)
EC50 [1]: 0.2 nM
Activity [2]: 9.9%
Tm [3]: 79 °C

CC[C@H](C)[C@H](NC(=O)[C@H](CC(C)C)NC(=O)[C@H](CCC(=O)O)NC(=O)[C@H](CCC(=O)O)NC(=O)[C@@H](NC(=O)[C@H](CC(C)C)NC(=O)[C@H](CO)NC(=O)[C@@H](NC(=O)[C@H](Cc1ccc(O)cc1)NC(C)=O)[C@@H](C)O)[C@@H](C)CC)C(=O)N[C@@H](CCCCN)C(=O)N[C@@H](CCCCN)C(=O)N[C@@H](CC(N)=O)C(=O)N[C@@H](CCC(=O)O)C(=O)N[C@@H](CCC(=O)O)C(=O)N[C@@H](CCC(N)=O)C(=O)N[C@@H](CCC(N)=O)C(=O)N[C@@H](CCCCN)C(=O)N[C@@H](CCCCN)C(=O)N[C@@H](CC(N)=O)C(=O)N[C@@H](CCC(=O)O)C(=O)N[C@@H](CCC(=O)O)C(=O)N[C@@H](CCC(=O)O)C(=O)N[C@@H](CC(C)C)C(=O)N[C@@H](CCCCN)C(=O)N[C@@H](CCCCN)C(=O)N[C@@H](CC(C)C)C(=O)N[C@@H](CCC(=O)O)C(=O)N[C@@H](CCC(=O)O)C(=O)N[C@@H](Cc1c[nH]c2ccccc12)C(=O)N[C@@H](C)C(=O)N[C@@H](CCCCN)C(=O)N[C@@H](CCCCN)C(=O)N[C@@H](Cc1c[nH]c2ccccc12)C(=O)N[C@@H](CC(N)=O)C(=O)N[C@@H](Cc1c[nH]c2ccccc12)C(=O)N[C@@H](Cc1ccccc1)C(N)=O (Ac-YTSLIEELIKKNEEQQKKNEEELKKLEEWAKKWNWF-NH2)
EC50 [1]: 4.8 nM
Activity [2]: 3.5%
Tm [3]: 65.7 °C

CC[C@H](C)[C@H](NC(=O)[C@H](CC(C)C)NC(=O)[C@H](CCC(=O)O)NC(=O)[C@H](CCC(=O)O)NC(=O)[C@@H](NC(=O)[C@H](CC(C)C)NC(=O)[C@H](CO)NC(=O)[C@@H](NC(=O)[C@H](Cc1ccc(O)cc1)NC(C)=O)[C@@H](C)O)[C@@H](C)CC)C(=O)N[C@@H](CCCCN)C(=O)N[C@@H](CCCCN)C(=O)N[C@@H](CCC(N)=O)C(=O)N[C@@H](CCC(=O)O)C(=O)N[C@@H](CCC(=O)O)C(=O)N[C@@H](CCC(N)=O)C(=O)N[C@@H](CCC(N)=O)C(=O)N[C@@H](CCCCN)C(=O)N[C@@H](CCCCN)C(=O)N[C@@H](CC(N)=O)C(=O)N[C@@H](CCC(=O)O)C(=O)N[C@@H](CCC(=O)O)C(=O)N[C@@H](CCC(=O)O)C(=O)N[C@@H](CC(C)C)C(=O)N[C@@H](CCCCN)C(=O)N[C@@H](CCCCN)C(=O)N[C@@H](CC(C)C)C(=O)N[C@@H](CCC(=O)O)C(=O)N[C@@H](CCC(=O)O)C(=O)N[C@@H](Cc1c[nH]c2ccccc12)C(=O)N[C@@H](C)C(=O)N[C@@H](CCCCN)C(=O)N[C@@H](CCCCN)C(=O)N[C@@H](Cc1c[nH]c2ccccc12)C(=O)N[C@@H](CC(N)=O)C(=O)N[C@@H](Cc1c[nH]c2ccccc12)C(=O)N[C@@H](Cc1ccccc1)C(N)=O (Ac-YTSLIEELIKKQEEQQKKNEEELKKLEEWAKKWNWF-NH2)
EC50 [1]: 7.9 nM
Activity [2]: 2.2%
Tm [3]: 60 °C

CC[C@H](C)[C@H](NC(=O)[C@H](CC(C)C)NC(=O)[C@H](CCC(=O)O)NC(=O)[C@H](CCC(=O)O)NC(=O)[C@@H](NC(=O)[C@H](CC(C)C)NC(=O)[C@H](CO)NC(=O)[C@@H](NC(=O)[C@H](Cc1ccc(O)cc1)NC(C)=O)[C@@H](C)O)[C@@H](C)CC)C(=O)N[C@@H](CCCCN)C(=O)N[C@@H](CCCCN)C(=O)N[C@@H](CCCNC(=N)N)C(=O)N[C@@H](CCC(=O)O)C(=O)N[C@@H](CCC(=O)O)C(=O)N[C@@H](CCC(N)=O)C(=O)N[C@@H](CCC(N)=O)C(=O)N[C@@H](CCCCN)C(=O)N[C@@H](CCCCN)C(=O)N[C@@H](CC(N)=O)C(=O)N[C@@H](CCC(=O)O)C(=O)N[C@@H](CCC(=O)O)C(=O)N[C@@H](CCC(=O)O)C(=O)N[C@@H](CC(C)C)C(=O)N[C@@H](CCCCN)C(=O)N[C@@H](CCCCN)C(=O)N[C@@H](CC(C)C)C(=O)N[C@@H](CCC(=O)O)C(=O)N[C@@H](CCC(=O)O)C(=O)N[C@@H](Cc1c[nH]c2ccccc12)C(=O)N[C@@H](C)C(=O)N[C@@H](CCCCN)C(=O)N[C@@H](CCCCN)C(=O)N[C@@H](Cc1c[nH]c2ccccc12)C(=O)N[C@@H](CC(N)=O)C(=O)N[C@@H](Cc1c[nH]c2ccccc12)C(=O)N[C@@H](Cc1ccccc1)C(=O)O (Ac-YTSLIEELIKKREEQQKKNEEELKKLEEWAKKWNWF-OH)
EC50 [1]: 320 nM
Activity [2]: 1.5%
Tm [3]: 49.4 °C

CC[C@H](C)[C@H](NC(=O)[C@H](CC(C)C)NC(=O)[C@H](CCC(=O)O)NC(=O)[C@H](CCC(=O)O)NC(=O)[C@@H](NC(=O)[C@H](CC(C)C)NC(=O)[C@H](CO)NC(=O)[C@@H](NC(=O)[C@H](Cc1ccc(O)cc1)NC(C)=O)[C@@H](C)O)[C@@H](C)CC)C(=O)N[C@@H](CCCCN)C(=O)N[C@@H](CCCCN)C(=O)N[C@@H](CO)C(=O)N[C@@H](CCC(=O)O)C(=O)N[C@@H](CCC(=O)O)C(=O)N[C@@H](C)C(=O)N[C@@H](CCC(N)=O)C(=O)N[C@@H](CCCCN)C(=O)N[C@@H](CCCCN)C(=O)N[C@@H](CC(N)=O)C(=O)N[C@@H](CCC(=O)O)C(=O)N[C@@H](CCC(=O)O)C(=O)N[C@@H](CCC(=O)O)C(=O)N[C@@H](CC(C)C)C(=O)N[C@@H](CCCCN)C(=O)N[C@@H](CCCCN)C(=O)N[C@@H](CC(C)C)C(=O)N[C@@H](CCC(=O)O)C(=O)N[C@@H](CCC(=O)O)C(=O)N[C@@H](Cc1c[nH]c2ccccc12)C(=O)N[C@@H](C)C(=O)N[C@@H](CCCCN)C(=O)N[C@@H](CCCCN)C(=O)N[C@@H](Cc1c[nH]c2ccccc12)C(=O)N[C@@H](CC(N)=O)C(=O)N[C@@H](Cc1c[nH]c2ccccc12)C(=O)N[C@@H](Cc1ccccc1)C(N)=O (Ac-YTSLIEELIKKSEEAQKKNEEELKKLEEWAKKWNWF-NH2)
EC50 [1]: 2.7 nM
Activity [2]: 5.6%
Tm [3]: 70.4 °C
